Reference: patent publication US4663332A, “5-substituted N-alkylated tetrazoles” (Hoffman-La Roche Inc., priority 1985, dated 1987)

Columns and labels:
[1] = biological target: T1, PAF binding to dog platelets (Canis lupus familiaris, UniProt A0A8I3NSH0); experiment: PAF Radioreceptor Binding Assay (PAF Binding); settings: inhibition of 3H-PAF binding to dog platelets, 10 min, room temperature
T1 construct: from tissue; host or cells: washed platelets from citrate-treated dog blood
T1 sequence (A0A8I3NSH0 1-343): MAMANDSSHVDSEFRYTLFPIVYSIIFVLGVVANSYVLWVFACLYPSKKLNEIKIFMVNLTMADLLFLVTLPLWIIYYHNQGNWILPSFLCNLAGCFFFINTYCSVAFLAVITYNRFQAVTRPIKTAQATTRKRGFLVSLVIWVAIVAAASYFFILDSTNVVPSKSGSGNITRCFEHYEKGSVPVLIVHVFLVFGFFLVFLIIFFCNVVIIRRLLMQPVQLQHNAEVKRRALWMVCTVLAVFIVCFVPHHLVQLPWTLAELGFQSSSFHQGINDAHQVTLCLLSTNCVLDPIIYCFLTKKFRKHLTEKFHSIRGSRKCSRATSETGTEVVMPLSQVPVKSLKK
Description: (1) PAF Radioreceptor Binding Assay (PAF Binding)
Platelet rich plasma is prepared by centrifugation of citrate-treated dog blood. Acidification to pH 6.5 with 0.15M citric acid and centrifugation for 10 minutes at 1000×g yields a platelet pellet which is then washed by resuspension in EDTA-Phosphate Buffered Saline (PBS) and recentrifuged. The washed platelet preparation is adjusted to 2×10^7 platelets/50 μl in 0.1% bovine serum albumin-PBS.
To a 400 μl microfuge tube containing 50 μl silicone oil (specific gravity 1.023) is added buffer, PAF standard or analog, or an extract to bring the aqueous volume to 150 μl. 50 μl of ^3 H-PAF (10,000 cpm, 45 Ci/mM) is added followed by 2×10^7 dog platelets. After mixing, incubating for 10 minutes at room temperature, and centrifuging for 1 minute in a Beckman Microfuge B (8000×g), the pellet is removed by clipping off the tip of the tube, the platelets are solubilized with 200 μl of 50% methanol and counted in 10 ml of Aquasol. […] Results obtained with representative copounds of the present invention in this assay are summarized hereinafter in Tables I and II. IC50 is drug concentration (μMolar) which inhibits PAF binding to dog platelets by 50%.

TXA2 synthase = biological target: T2, TXA2 synthase (Homo sapiens, UniProt P24557); experiment: Thromboxane Synthase Inhibition, In Vitro (TXA2 Synth. Inhib.); assay type: biochemical; settings: human platelet microsomes, 10 μM 14C-PGH2, 22° C., 2 min
T2 construct: using microsomal fractions from human platelets as enzyme source; from tissue; host or cells: microsomal fractions from human platelets
T2 sequence (P24557 1-533): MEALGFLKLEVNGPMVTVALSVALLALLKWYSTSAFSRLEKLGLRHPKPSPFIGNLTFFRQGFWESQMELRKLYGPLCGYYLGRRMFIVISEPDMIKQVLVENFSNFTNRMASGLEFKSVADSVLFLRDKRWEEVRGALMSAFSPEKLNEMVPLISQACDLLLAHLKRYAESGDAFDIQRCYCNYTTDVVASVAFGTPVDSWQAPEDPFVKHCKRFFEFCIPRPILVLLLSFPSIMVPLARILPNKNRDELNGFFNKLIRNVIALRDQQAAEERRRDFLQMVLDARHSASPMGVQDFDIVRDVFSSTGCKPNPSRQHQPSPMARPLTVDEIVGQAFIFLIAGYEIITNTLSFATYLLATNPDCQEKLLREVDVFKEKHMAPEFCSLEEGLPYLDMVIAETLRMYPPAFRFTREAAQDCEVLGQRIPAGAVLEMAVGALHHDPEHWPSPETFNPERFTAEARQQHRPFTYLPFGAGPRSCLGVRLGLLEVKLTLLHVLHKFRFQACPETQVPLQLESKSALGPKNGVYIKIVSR
Description: (2) Thromboxane Synthase Inhibition, In Vitro (TXA2 Synth. Inhib.)
TXA2 synthase activity is measured by following the conversion of ^14 C-prostaglandin endoperoxide (PGH2) to ^14 C-thromboxane A2 (TXA2) using microsomal fractions from human platelets as enzyme source. In the aqueous incubation medium, the TXA2 decomposes rapidly into TXB2. The amount of TXA2 synthase is adjusted so that under the conditions of the assay approximately 80-90% of the substrate, PGH2, is converted to product in control tubes. To prepare ^14 C-PGH2, ^14 C-AA (50-60 mCi/mmole; Rose Chem.) is incubated with sheep seminal vesicular gland microsomes for 1.5 minutes at 37° C. and then the ^14 C-PGH2 is extracted with diethylether, purified on columns oof Sephadex LH-20 or silicic acid, and stored in acetone at -70° C. Incubations are done as follows. Sufficient ^14 C-PGH2 to yield a final substrate concentration of 10 μM (30,000 cpm) is added to the incubation tubes and then the acetone is removed under nitrogen. The tubes are placed in an ice bath and then 215 μl of ice cold phosphate buffered saline, 10 μl of ethanol (control) or of test drug in ethanol, and 25 μl of the microsomal suspension are added with mixing in that order as rapidly as possible. The tubes are incubated at 22° C. for 2 minutes, the reaction is stopped and then the radioactive products and the unconverted PGH2 are extracted and analyzed by thin layer chromatography. […] The amount of ^14 C-PGH2 converted to products was used as a measure of TXA2 synthase activity. Inhibitors were tested initially at a final concentration 100 μM. Results obtained with representative compounds of the present invention in this assay are summarized hereafter in Tables I and II. IC50 is the drug concentration (μMolar) which inhibits TXA2 activity by 50%.

PAF [2] = experiment: Inhibition of PAF Induced Guinea Pig Bronchoconstriction Test (Inhib. of PAF Broncho.); assay type: in vivo, guinea pig (Hartley strain); settings: Cavia porcellus, iv; 1 mg/kg i.v. (1 min. pretreat)
Description: (3) Inhibition of PAF Induced Guinea Pig Bronchoconstriction Test (Inhib. of PAF Broncho.)
Male guinea pigs (Hartley strain) weighing 300 to 500 g are anesthetized with urethane (2 g/kg) intraperitoneally and a polyethylene cannula is inserted into the jugular vein for drug administration. Tracheal pressure is recorded from a cannula inserted in the trachea and connected to a Statham pressure transducer. Propranolol (0.1 mg/kg) is administered intravenously five minutes before challenge with synthetic PAF, the animal's skeletal muscles are then paralyzed with succinylcholine (1.2 mg/kg i.v.), and the animal is respirated using a Harvard small animal respirator operating at 40 breaths/min and 2.5 cc stroke volume. Under these conditions PAF induces a dose-dependent increase in ventilatory pressure over a dose range of 0.5 to 5 μg/kg i.v. For screening purposes animals are challenged with a single dose of PAF (10 μg/kg i.v.).
The peak increase in ventilatory pressure (cm H2 O) is recorded for three control animals and five drug-treated animals and the percent inhibition determined from the following formula [formula] Results obtained with representative compounds of the invention in this test are summarized hereinafter in Tables I and II.

PAF [3] = experiment: Inhibition of PAF-Induced Rat Skin Wheal Test (Inhib. of PAF Skin Wheal); assay type: in vivo, Sprague-Dawley rats; settings: 5 mg/kg i.v., 5 ng PAF intradermally
Description: (4) Inhibition of PAF-Induced Rat Skin Wheal Test (Inhib. of PAF Skin Wheal)
This test evaluates the ability of compounds to inhibit PAF-induced increases in vascular permeability in the skin of Sprague-Dawley rats. PAF induces a dose-dependent skin wheal response in this system over a dose range of 0.0001 to 1 μg/0.05 ml injection. The profound vasoactive activity of PAF is emphasized by the fact that the maximum skin wheal response is considerably greater than that obtained with LTE and an EC50 response is elicited at a 10-fold lower dose. […] Thirty minutes later the animals are sacrificed and the increase in vascular permeability induced by the migration of dye into the injection point in the skin is determined. For this purpose, rats are sacrificed by cervical dislocation,the dorsal skin is removed, the long and short axis of each animal is measured with a metric vernier caliper and the average diameter is obtained. Results obtained are measured as % of migration of dye as compared to untreated animals. More specifically, results are measured as a percent inhibition of the diameters of the wheals formed in a treated animals as compared to untreated animals. […]

PAF [4] = experiment: Inhibition of PAF-Induced Platelet Aggregation (Inhib. of PAF Platelet Reduction); assay type: in vivo, guinea pig; settings: Cavia porcellus, iv, 3 mg/kg i.v.
Description: (5) Inhibition of PAF-Induced Platelet Aggregation (Inhib. of PAF Platelet Reduction)
Guinea pigs (anesthetized) are set up to withdraw blood for platelet counting. The animal is allowed to stabilize after completion of surgical procedures. The carotid catheter is allowed to bleed back blood and then is filled, prior to each sample withdrawal with sodium citrate 3.8% (0.15 ml). Blood (0.25 ml) is withdrawn 30 seconds prior to the PAF challenge and at 15, 30 and 60 seconds after the PAF challenge. This first PAF challenge is used as the control, assuming sufficient decreases in platelet count are observed. The amount of PAF used will be approximately 50 ng/kg, however, this can be increased to achieve the desired decreases in platelet count. Fifteen minutes after the control PAF challenge, intravenous drug dosing begins, with animals being dosed at 30 minute intervals; PAF challenge follows 15 minutes after each intravenous dose. Three intravenous drug doses are used in each experiment. Initial drug doses are 1, 3 and 10 mg/kg i.v. Inhibition of PAF platelet reduction at 3 mg/kg i.v. for representative compounds of the invention are summarized hereinafter in Tables I and II. Percent inhibition is [formula]

LTD4 = experiment: Leukotriene (LTD4) Induced arrhythmia and Hypertension Test; assay type: in vivo, guinea pig (Hartley); settings: 100 mg/kg po, 3 hour pretreatment, conscious guinea pigs; for No. Animals with Abnormal Beat/No. Tested: first two minutes after LTD4, saline control 12/12; for ↑ABP (increase in blood pressure after LTD4): saline control 30 ± 4; for ↓ABP (decrease in blood pressure after LTD4): saline control -45 ± 4
Description: (6) Leukotriene (LTD4) Induced arrhythmia and Hypertension Test
Male Hartley guinea pigs are anesthetized with sodium pentobarbital and prepared for monitoring direct blood pressure and injecting drugs intravenously by catheterizing the right carotid artery and right jugular vein. Blood pressure, heart rate, and Lead II ECG are monitored in the conscious animal 24 hours later.
The oral activity of a drug is evaluated by pretreating animals 3 hours before the LTD4 challenge.
Intravenous administration of LTD4 2.5 μg/kg) is associated with an increase in blood pressure lasting approximately 1-2 minutes followed by a decrease lasting approximately 5-15 minutes. Abnormal beats consisting of premature ventricular contractions, ST elevation or depression, atrioventricular conduction block, or dissociated p waves begin during the rise in blood pressure; the peak effect occurs approximately 40 seconds after LTD4. The number of animals with abnormal beats within the first two minutes after the injection of LTD4 over the total number of animals tested is presented in Table III. During the hypotensive response, the animal usually collapses during the 2nd or 3rd minute after LTD4 and regains posture approximately 10 minutes after LTD4.

CCCc1c(OCCCCc2nnnn2CCCc2cccnc2)ccc(C(C)=O)c1O [H H 4 3 3-pyridyl, 1-[2-Hydroxy-3-propyl-4-[4-[1-[3-(3-pyridinyl)propyl]-1H-tetrazol-5-yl]butoxy]phenyl]ethanone]
IC50 [1]: 0.125 µM
IC50 (TXA2 synthase): 0.1 to 1 µM
inhibition in vivo at 1 mg/kg (PAF [2]): 99%
inhibition of PAF skin wheal (PAF [3]): 65±3%

CCCc1c(OCCCCc2nnnn2CCCn2ccnc2)ccc(C(C)=O)c1O [H H 4 3 1-imidazolyl, 1-[2-Hydroxy-3-propyl-4-[4-[1-[3-(1H-imidazol-1-yl)propyl]-1H-tetrazol-5-yl]butoxy]phenyl]ethanone]
IC50 [1]: 0.175 µM
IC50 (TXA2 synthase): 0.1 to 1 µM
inhibition in vivo at 1 mg/kg (PAF [2]): 8 ± 8%
inhibition in vivo at 3 mg/kg (PAF [4]): 3%

CCCc1c(OCCCCCc2nnnn2CCCc2cccnc2)ccc(C(C)=O)c1O [5 3, 1-[2-hydroxy-3-propyl-4-[5-[1-[3-(3-pyridinyl)propyl]-1H-tetrazol-5-yl]pentyloxy]phenyl]ethanone]
No. Animals with Abnormal Beat/No. Tested (LTD4): 0/4
↑ABP (increase in blood pressure after LTD4) (LTD4): 13 ± 8 Δmm Hg
↓ABP (decrease in blood pressure after LTD4) (LTD4): -20 ± 9 Δmm Hg

CCCc1c(OCCCCCc2nnnn2CCCCc2cccnc2)ccc(C(C)=O)c1O [H H 5 4 3-pyridyl, 1-[2-Hydroxy-3-propyl-4-[5-[1-[4-(3-pyridinyl)butyl]-1H-tetrazol-5-yl]pentyloxy]phenyl]ethanone]
IC50 [1]: 0.275 µM
IC50 (TXA2 synthase): 0.1 to 1 µM
inhibition in vivo at 1 mg/kg (PAF [2]): 58 ± 14%
inhibition in vivo at 3 mg/kg (PAF [4]): 0%

CCCc1c(OCCCc2nnnn2CCCCc2cccnc2)ccc(C(C)=O)c1O [H H 3 4 3-pyridyl, 1-[2-Hydroxy-3-propyl-4-[3-[1-[4-(3-pyridinyl)butyl]-1H-tetrazol-5-yl]propoxy]phenyl]ethanone]
IC50 [1]: 0.45 µM
IC50 (TXA2 synthase): 0.1 to 1 µM
inhibition in vivo at 1 mg/kg (PAF [2]): 59 ± 12%
inhibition in vivo at 3 mg/kg (PAF [4]): 40%

CCCc1c(OCCCc2nnnn2CCCc2cccnc2)ccc(C(C)=O)c1O [3 3, 1-[2-Hydroxy-3-propyl-4-[3-[1-[3-(3-pyridinyl)propyl]-1H-tetrazol-5-yl]propoxy]phenyl]ethanone]
No. Animals with Abnormal Beat/No. Tested (LTD4): 1/4
↑ABP (increase in blood pressure after LTD4) (LTD4): 14 ± 5 Δmm Hg
↓ABP (decrease in blood pressure after LTD4) (LTD4): -23 ± 10 Δmm Hg

CCCc1c(OCCCCCc2nnnn2CCCc2cccnc2)ccc(C(C)=O)c1OC(C)=O [H Ac 5 3 3-pyridyl, 1-[2-Acetoxy-3-propyl-4-[5-[1-[3-(3-pyridinyl)propyl]-1H-tetrazol-5-yl]pentyloxy]phenyl]ethanone]
IC50 [1]: 0.18 µM
IC50 (TXA2 synthase): 0.1 to 1 µM
inhibition in vivo at 1 mg/kg (PAF [2]): 84.8 ± 11%
inhibition in vivo at 3 mg/kg (PAF [4]): 31%
